Experimental findings from patent publication US10082509B2 (priority 2013, dated 2018) are described below.

For test [1], the system named is Legionella pneumophila. It counts as cell-based. The following applies: for labelling / metabolic incorporation: L. pneumophila strains, laboratory in vitro conditions, FIG. 7; for membrane labelling: FIG. 4.
Test [2] concerns P. aeruginosa (ATCC 9027). It counts as cell-based, Pseudomonas aeruginosa.
For test [3], the system named is E. coli K12 (MG1655). It counts as cell-based, Escherichia coli.
For test [4], the system named is L. gormanii, L. maceachernii, L. micdadei, L. anisa, L. feeli, L. jordanis, L. tucsonensis and L. bozemanii. It counts as cell-based, Legionella spp.

Molecules are shown by their SMILES. Entries after “also recorded” stand apart in the source; their conditions may differ. Where two headings read alike, the source gives them in different places.

For `CC(=O)NC1C(O)OC(CN=[N+]=[N-])[C@@H](NC(C)=O)[C@@H]1OC(C)=O` (some centres unmarked), the “labelling / metabolic incorporation” value in test [1] is on record as “not incorporated; also recorded: No labelling was observed”.

Regarding `CC(=O)N[C@H]1[C@H](O)[C@H](NC(C)=O)C(O)O[C@@H]1CN=[N+]=[N-]` (some centres unmarked), the entries for the “labelling / metabolic incorporation” value in test [2], in test [1] and in test [3] were “not incorporated; also recorded: failed to show any labelling”, “efficiently labelled” and “not incorporated; also recorded: failed to show any labelling”, respectively. In addition, the membrane labelling entry in test [1] (L. pneumophila strain of serogroup 7) was “absence of labelling”; in test [1] (four L. pneumophila strains of serogroups 3, 4, 5, 6), “very bright membrane labelling”. The “membrane fluorescence / metabolic incorporation of the azido chemical reporter into LPS” value in test [1] (four L. pneumophila serogroup 1 strains (incl. Philadelphia, Paris, Lens), 4 mM, 12 hours, 37° C., FIG. 3) is on record as “highly distinctive fluorescence on their membrane”. In test [4], the “membrane fluorescence / metabolic incorporation” value is given as “not incorporated; also recorded: no membrane fluorescence was observed”.
